The values below come from patent US6699862B1, “Indolyl-2-phenyl bisamidines useful as antiproliferative agents” (Pfizer Inc., priority 1999, dated 2004).

A word on the melting point: it is the temperature, or range, at which the solid turns liquid. In turn, `CC(C)OC(=O)C(C)Oc1cc(C(=N)N)ccc1-c1cc2ccc(C(=N)N)cc2[nH]1.Cl.Cl` (centres unmarked) registered a melting point of 240 °C.

On to `Cl.Cl.N=C(N)c1ccc(-c2cc3ccc(C(=N)N)cc3[nH]2)c(OCC(O)CO)c1` (centres unmarked), for which the melting point was > 320 °C.

On to `CCCCOC(=O)Cc1c(-c2ccc(C(=N)N)cc2)[nH]c2cc(C(=N)N)ccc12.Cl.Cl`, for which the melting point is > 270 °C.

Turning to `CCCOC(=O)Cc1c(-c2ccc(C(=N)N)cc2)[nH]c2cc(C(=N)N)ccc12.Cl.Cl`, the melting point is > 270 °C.

Consider `CC(C(=O)O)c1c(-c2ccc(C(=N)N)cc2)[nH]c2cc(C(=N)N)ccc12.Cl.Cl` (centres unmarked), for which the melting point was > 260 °C.

On to `Cl.Cl.O=C(O)Cc1c(-c2ccc(C3=NCCN3)cc2)[nH]c2cc(C3=NCCN3)ccc12`, for which the melting point is > 300 °C.

On to `CCOC(=O)Cc1c(-c2ccc(C3=NCCN3)cc2)[nH]c2cc(C3=NCCN3)ccc12.Cl.Cl`, for which the melting point was > 300 °C.

Take `COC(=O)c1ccc(Cc2c(-c3ccc(C(=N)N)cc3)[nH]c3cc(C(=N)N)ccc23)cc1.Cl.Cl`: the melting point is > 250 °C.

In turn, `CNC(=N)c1ccc(-c2cc3ccc(C(=N)NC)cc3[nH]2)cc1.Cl.Cl` registered a melting point of 282 °C.

As to `COCCOC(=O)Cc1c(-c2ccc(C(=N)N)cc2)[nH]c2cc(C(=N)N)ccc12.Cl.Cl`, the melting point is > 250 °C.

As to `Cl.Cl.N=C(N)c1ccc(-c2[nH]c3cc(C(=N)N)ccc3c2CC(=O)OCCO)cc1`, the melting point was > 250 °C.

In the case of `COC(=O)Cc1c(-c2ccc(C(=N)N)cc2O)[nH]c2cc(C(=N)N)ccc12.Cl.Cl`, the melting point is > 250 °C.

As for `C=CCOC(=O)Cc1c(-c2ccc(C(=N)N)cc2)[nH]c2cc(C(=N)N)ccc12.Cl.Cl`, the melting point is > 250 °C.

With `CCOC(=O)CC(C)OC(=O)Cc1c(-c2ccc(C(=N)N)cc2)[nH]c2cc(C(=N)N)ccc12.Cl.Cl` (centres unmarked), the melting point is > 250 °C.

As for `Cl.Cl.N#CCCOC(=O)Cc1c(-c2ccc(C(=N)N)cc2)[nH]c2cc(C(=N)N)ccc12`, the melting point was > 250 °C.

Consider `COC(=O)C=CCc1c(-c2ccc(C(=N)N)cc2)[nH]c2cc(C(=N)N)ccc12.Cl.Cl`, for which the melting point was > 250 °C.

With `Cl.Cl.Fc1cc2cc(-c3ccc(C4=NCCN4)cc3)[nH]c2cc1C1=NCCN1`, the melting point was > 250 °C.

For `Cl.Cl.N=C(N)c1ccc(-c2[nH]c3cc(C(=N)N)ccc3c2Cc2cccc(OCC(N)=O)c2)cc1`, the melting point is > 250 °C.

With `COC(=O)C=Cc1ccc(Cc2c(-c3ccc(C(=N)N)cc3)[nH]c3cc(C(=N)N)ccc23)cc1.Cl.Cl`, the melting point is > 250 °C.

Consider `COC(=O)c1cccc(Cc2c(-c3ccc(C(=N)N)cc3)[nH]c3cc(C(=N)N)ccc23)c1.Cl.Cl`, for which the melting point is > 250 °C.

Turning to `Cl.Cl.N=C(N)c1ccc(-c2[nH]c3cc(C(=N)N)ccc3c2CC(=O)OCc2ccccc2)cc1`, the melting point is > 250 °C.

On to `Cl.Cl.N=C(N)c1ccc(-c2[nH]c3cc(C(=N)N)ccc3c2CC(=O)OCCCCCO)cc1`, for which the melting point is > 250 °C.

Take `Cl.Cl.N=C(N)c1ccc(-c2[nH]c3cc(C(=N)N)ccc3c2CC(=O)OCCOCc2ccccc2)cc1`: the melting point is > 250 °C.

Consider `COC(=O)c1cc(Cl)ccc1Cc1c(-c2ccc(C(=N)N)cc2)[nH]c2cc(C(=N)N)ccc12.Cl.Cl`, for which the melting point was > 250 °C.

As for `Cl.Cl.N=C(N)c1ccc(-c2[nH]c3cc(C(=N)N)ccc3c2CCNCC(=O)O)cc1`, the melting point is > 250 °C.

Take `COC(=O)CNCCc1c(-c2ccc(C(=N)N)cc2)[nH]c2cc(C(=N)N)ccc12.Cl.Cl`: the melting point is > 250 °C.

Consider `CCOC(=O)CNCCc1c(-c2ccc(C(=N)N)cc2)[nH]c2cc(C(=N)N)ccc12.Cl.Cl`, for which the melting point is > 250 °C.

With `Cl.Cl.N=C(N)c1ccc(-c2cc3ccc(C(=N)N)cc3[nH]2)c(O)c1`, the melting point is > 300 °C.

For the molecule `COC(=O)C(CO)NCCc1c(-c2ccc(C(=N)N)cc2)[nH]c2cc(C(=N)N)ccc12.Cl.Cl` (centres unmarked), the melting point was > 250 °C.

With `COC(=O)CC(NCCc1c(-c2ccc(C(=N)N)cc2)[nH]c2cc(C(=N)N)ccc12)C(=O)OC.Cl.Cl` (centres unmarked), the melting point is > 250 °C.

Regarding `Cl.Cl.N=C(N)c1ccc(-c2[nH]c3cc(C(=N)N)ccc3c2CC(=O)OCCOCCO)cc1`, the melting point is > 250 °C.

With `CCSCCOC(=O)Cc1c(-c2ccc(C(=N)N)cc2)[nH]c2cc(C(=N)N)ccc12.Cl.Cl`, the melting point is > 250 °C.

Regarding `Cl.Cl.N=C(N)c1ccc(-c2[nH]c3cc(C(=N)N)ccc3c2CC(=O)OCCc2cccs2)cc1`, the melting point is > 250 °C.

Consider `Cl.Cl.N=C(N)c1ccc(-c2[nH]c3cc(C(=N)N)ccc3c2CC(=O)OCC2CCCCO2)cc1` (centres unmarked), for which the melting point is > 250 °C.

With `COCCOCCOC(=O)Cc1c(-c2ccc(C(=N)N)cc2)[nH]c2cc(C(=N)N)ccc12.Cl.Cl`, the melting point is > 250 °C.

As to `Cl.Cl.N=C(N)c1ccc(-c2[nH]c3cc(C(=N)N)ccc3c2CC(=O)OCC(O)CO)cc1` (centres unmarked), the melting point was > 250 °C.

Regarding `COC(=O)C(C)NCCc1c(-c2ccc(C(=N)N)cc2)[nH]c2cc(C(=N)N)ccc12.Cl.Cl` (centres unmarked), the melting point was > 250 °C.

Take `Cl.Cl.N=C(N)c1ccc(-c2[nH]c3cc(C(=N)N)ccc3c2CC(=O)O)cc1`: the melting point was > 250 °C.

For `COC(=O)C(NCCc1c(-c2ccc(C(=N)N)cc2)[nH]c2cc(C(=N)N)ccc12)C(C)C.Cl.Cl` (centres unmarked), the melting point is > 250 °C.

With `COC(=O)C(Cc1ccccc1)NCCc1c(-c2ccc(C(=N)N)cc2)[nH]c2cc(C(=N)N)ccc12.Cl.Cl` (centres unmarked), the melting point is > 250 °C.

As to `CCCCS(=O)(=O)CCOC(=O)Cc1c(-c2ccc(C(=N)N)cc2)[nH]c2cc(C(=N)N)ccc12.Cl.Cl`, the melting point was > 250 °C.

As for `COC(=O)CCNCCc1c(-c2ccc(C(=N)N)cc2)[nH]c2cc(C(=N)N)ccc12.Cl.Cl`, the melting point is > 250 °C.

On to `Cl.Cl.N=C(N)c1ccc(-c2[nH]c3cc(C(=N)N)ccc3c2CC(O)CO)cc1` (centres unmarked), for which the melting point is > 250 °C.

`Cl.Cl.O=CCc1c(-c2ccc(C3=NCCN3)cc2)[nH]c2cc(C3=NCCN3)ccc12`: the melting point is > 300 °C.

On to `Cl.Cl.N=C(N)c1ccc(-c2[nH]c3cc(C(=N)N)ccc3c2NC(=O)CCC(=O)O)cc1`, for which the melting point was > 250 °C.

As for `COC(=O)C(CCCNC(=O)OCc1ccccc1)NC(=O)Cc1c(-c2ccc(C(=N)N)cc2)[nH]c2cc(C(=N)N)ccc12.Cl.Cl` (centres unmarked), the melting point is 230 to 235 °C.

For `COC(=O)C(CCCN)NC(=O)Cc1c(-c2ccc(C(=N)N)cc2)[nH]c2cc(C(=N)N)ccc12.Cl.Cl` (centres unmarked), the melting point is > 250 °C.

The molecule `Cl.Cl.N=C(N)c1ccc(-c2[nH]c3cc(C(=N)N)ccc3c2CC(=O)NCC(=O)NC(CCC(=O)OCc2ccccc2)C(=O)OCc2ccccc2)cc1` (centres unmarked) gave a melting point of 207 to 212 °C.

On to `COC(=O)C(CCCCN)NC(=O)Cc1c(-c2ccc(C(=N)N)cc2)[nH]c2cc(C(=N)N)ccc12.Cl.Cl` (centres unmarked), for which the melting point was > 260 °C.

On to `COc1cc(C(=N)N)ccc1-c1cc2ccc(C(=N)N)cc2[nH]1.Cl.Cl`, for which the melting point is > 250 °C.
